Test results published in US20110190126A1, “WEED CONTROL METHOD AND HERBICIDAL COMPOSITION” (SYNGENTA CROP PROTECTION, INC., priority 2008, published 2011).

Tested on: sugarcane
Test: Field trials in 1.5 year plant cane: phytotoxicity (% damage) to sugarcane
Assay type: in vivo
Conditions: 200 g/ha
Procedure: Five field trials are carried out in 1.5 year plant cane to examine the effect on sugarcane of combinations of compound of Formula I with various PS-II inhibiting herbicides. Plot sizes are 20 m^2 and results shown are the average of 3 replicate treatments.

## COCCOCc1nc(C(F)(F)F)ccc1C(=O)C1=C(O)C2CCC(C2)C1=O (stereo not shown) [Formula I]
  % Damage (Average of three trials).: 8%
